Measurements reported in PMC7403393 (Scientific Reports, 2020).
Structures can show the parent of a compound that is named as a salt. Where two headings read alike, the source gives them in different places.

Experiments:
SARS-CoV-2 [1] = test: EC50/EC90 determination by quantification of viral genome (real-time RT-PCR) in VeroE6 cells; format: cell-based, SARS-CoV-2 strain BavPat1; details: for SI: selectivity index CC50/EC50, VeroE6
Procedure: Four virus control wells were supplemented with 25 µL of assay medium. After 15 min, 25 µL of a virus mix diluted in medium was added to the wells. The amount of virus working stock used was calibrated prior to the assay, based on a replication kinetics, so that the replication growth is still in the exponential growth phase for the readout as previously described[10],[11]. Four cell control wells (i.e. with no virus) were supplemented with 50 µL of assay medium. […] Plates were incubated for 2 days at 37 °C prior to quantification of the viral genome by real-time RT-PCR. To do so, 100 µL of viral supernatant was collected in S-Block (QIAGEN, Hilden, Germany) previously loaded with VXL lysis buffer containing proteinase K and RNA carrier. RNA extraction was performed using the Qiacube HT automat and the Cador Pathogen 96 HT kit following manufacturer instruction. Viral RNA was quantified by real-time RT-qPCR (EXPRESS One-Step Superscript qRT-PCR Kit, universal Invitrogen using 3.5 µL of RNA and 6.5 µL of RT qPCR mix and standard fast cycling parameters, i.e., 10 min at 50 °C, 2 min at 95 °C, and 40 amplification cycles (95 °C for 3 s followed by 30 s at 60 °C). Quantification was provided by four 2 log serial dilutions of an appropriate T7-generated synthetic RNA standard of known quantities (10^2 to 10^8 copies). RT-qPCR reactions were performed on QuantStudio 12K Flex Real-Time PCR System (APPLIED BIOSYSTEMS, Waltham, USA) and analyzed using QuantStudio 12 K Flex Applied Biosystems software v1.2.3. […] CC50 was determined using logarithmic interpolation. All data obtained were analyzed using GraphPad Prism software version 7.0 (GRAPH PAD software Inc, California, USA).
Whereas the screening relied on the quantification of cytopathic effect (CPE) using CellTiter Blue providing qualitative information on the viral infection, EC50 determination were based on the quantification of the viral genome by Real-Time RT-PCR[11].

SARS-CoV-2 [2] = test system: SARS-CoV-2
in vitro = details: African green monkey
SARS-CoV-2 [3] = test system: SARS-CoV-2; design: method as in earlier work; details: cited from earlier work
VeroE6 cells = details: VeroE6, no virus, CellTiter Blue
[4] = Severe acute respiratory syndrome coronavirus 2, Vero C1008, 48 h, VeroE6, viral RNA by RT-qPCR, 2 days, read-out: EC50
[5] = 10 µM compound, VeroE6, MOI 0.002, 3 days after infection, normalized cell viability relative to 10 µM arbidol
[6] = Severe acute respiratory syndrome coronavirus 2, Vero C1008, 48 h
[7] = VeroE6, viral RNA by RT-qPCR, 2 days, read-out: EC50
[8] = Severe acute respiratory syndrome coronavirus 2, Vero C1008, 48 h, VeroE6, viral RNA by RT-qPCR, 2 days, read-out: EC90

For `COC(c1ccccc1)(c1ccccc1)[C@H](Oc1nc(C)cc(C)n1)C(=O)O` [Ambrisentan], the EC50 (SARS-CoV-2 [1]; [4]) was at least 40 µM and the “activity at 40 µM” value (SARS-CoV-2 [1]; VeroE6, 40 µM) was “lack of activity”.
`CNCC(O)c1ccc(OC(=O)C(C)(C)C)c(OC(=O)C(C)(C)C)c1` (stereo not shown) [Dipivefrin hydrochloride] gave an Inhibition index (SARS-CoV-2 [2]; [5]) of 1.01.
`CC(C)CN(C[C@@H](O)[C@H](Cc1ccccc1)NC(=O)O[C@H]1CO[C@H]2OCC[C@H]21)S(=O)(=O)c1ccc(N)cc1` [Darunavir] showed an EC50 (SARS-CoV-2 [1]; [4]) of at least 40 µM.
Compound `Nc1c2c(nc3ccccc13)CCCC2` [Tacrine hydrochloride] has an Inhibition index (SARS-CoV-2 [2]; [5]) of 1.44.
`COc1ccccc1OCC(O)CN1CCN(CC(=O)Nc2c(C)cccc2C)CC1` (stereo not shown) [Ranolazine] showed an EC50 (SARS-CoV-2 [1]; [4]) of at least 40 µM.
Work on `CNCc1cc(-c2ccccc2F)n(S(=O)(=O)c2cccnc2)c1` [Vonoprazan] yielded a CC50 at 2 days (in vitro) of over 40 µM, an EC90 (SARS-CoV-2 [1]; [6]) of over 40 µM and an EC50 (SARS-CoV-2 [1]; Severe acute respiratory syndrome coronavirus 2, Vero C1008, 48 h, VeroE6, viral RNA by RT-qPCR, 2 days) of over 30 µM. It also gave an EC50 (SARS-CoV-2 [1]; [7]) of 38.6 µM and an SI (SARS-CoV-2 [1]) of over 1.
Compound `COc1ccc2[nH]c([S+]([O-])Cc3ncc(C)c(OC)c3C)nc2c1` (stereo not shown) [Omeprazole] has a CC50 at 2 days (in vitro; VeroE6 cells (no virus)) of over 40 µM, an EC50 (SARS-CoV-2 [1]; [4]) of 17.1 µM and an EC90 (SARS-CoV-2 [1]; [8]) of 38 µM.
Work on `CN(C)CCCN1c2ccccc2Sc2ccccc21` [Promazine hydrochloride] yielded an Inhibition index (SARS-CoV-2 [2]; [5]) of 1.16.
With `OCCN1CCN(CCCN2c3ccccc3C=Cc3ccccc32)CC1` [Opipramol dihydrochloride] the CC50 at 2 days (in vitro; VeroE6 cells (no virus)) was over 40 µM, the EC50 (SARS-CoV-2 [1]; [4]) was 5.05 µM and the EC90 (SARS-CoV-2 [1]; [8]) was 5.97 µM. For the same compound, the SI (SARS-CoV-2 [1]) was over 7.9 and the Inhibition index (SARS-CoV-2 [2]; [5]) was 1.05.
`CC[C@H]1OC(=O)[C@H](C)[C@@H](O[C@H]2C[C@@](C)(OC)[C@@H](O)[C@H](C)O2)[C@H](C)[C@@H](O[C@@H]2O[C@H](C)C[C@H](N(C)C)[C@H]2O)[C@](C)(O)C[C@@H](C)CN(C)[C@H](C)[C@@H](O)[C@]1(C)O` [Azithromycine] showed a CC50 at 2 days (in vitro; VeroE6 cells (no virus)) of over 40 µM, an EC50 (SARS-CoV-2 [1]; [4]) of 2.12 µM and an EC90 (SARS-CoV-2 [1]; [8]) of 8.65 µM. The SI (SARS-CoV-2 [1]) was over 19 and the “antiviral effect in a macaque model” value (SARS-CoV-2 [3]) was “no antiviral effect”.
In the case of `CCCCOc1cc(C(=O)OCCN(CC)CC)ccc1N` [Benoxinate hydrochloride], the Inhibition index (SARS-CoV-2 [2]; [5]) is reported as 1.19.
Work on `Cl.Clc1ccc(Cn2c(CN3CCCC3)nc3ccccc32)cc1` [Clemizole hydrochloride] yielded a CC50 (VeroE6 cells) of over 40 µM, an EC50 (SARS-CoV-2 [1]; [7]) of 23.9 µM and an EC90 (SARS-CoV-2 [1]; VeroE6, viral RNA by RT-qPCR, 2 days, read-out: EC90) of 38.2 µM. The SI (SARS-CoV-2 [1]) was over 1.7 and the Inhibition index (SARS-CoV-2 [2]; [5]) was 1.01.
Work on `C[C@@H]1CCO[C@H]2Cn3cc(C(=O)NCc4ccc(F)cc4F)c(=O)c(O)c3C(=O)N12` [Dolutegravir] yielded a CC50 at 2 days (in vitro; VeroE6 cells (no virus)) of over 40 µM, an EC90 (SARS-CoV-2 [1]; [6]) of over 40 µM and an EC50 (SARS-CoV-2 [1]; [4]) of 22 µM. The SI (SARS-CoV-2 [1]) was over 1.8.
For `CCN(CCO)CCCC(C)Nc1ccnc2cc(Cl)ccc12` (stereo not shown) [Hydroxychloroquine sulfate], the CC50 at 2 days (in vitro) was over 40 µM, the EC50 (SARS-CoV-2 [1]; [4]) was 4.17 µM and the EC90 (SARS-CoV-2 [1]; [8]) was 25.5 µM. The “antiviral effect in a macaque model” value (SARS-CoV-2 [3]) was “no antiviral effect”.
`O=C([O-])c1ccccc1-c1c2cc(Br)c(=O)cc-2oc2[c]([Hg+])c([O-])c(Br)cc12.[Na+].[Na+].[OH-]` [Merbromin disodium salt] gave an Inhibition index (SARS-CoV-2 [2]) of 1.12.
`COc1ccc(CC(C)NCC(O)c2ccc(O)c(NC=O)c2)cc1` (stereo not shown) [Formoterole] showed an EC50 (SARS-CoV-2 [1]; [7]) of at least 40 µM.
Work on `O=C(CCCN1CCC2(CC1)C(=O)NCN2c1ccccc1)c1ccc(F)cc1` [Spiperone] yielded a CC50 at 2 days (in vitro) of over 40 µM and an EC90 (SARS-CoV-2 [1]; [8]) of 13.1 µM.
